Test results as given in ChEMBL document CHEMBL1201862, “PubChem BioAssay data set” (2004).
The source made the active and inactive calls.

How the values were obtained:
[1] = target: T1, Ubiquitin-conjugating enzyme E2 N (Homo sapiens, UniProt P61088); format: functional;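 further: Dose-response confirmation in a TR-FRET assay detecting UBC13-driven polyubiquitin chain formation, inhibition measured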
T1 sequence (P61088 whole entry): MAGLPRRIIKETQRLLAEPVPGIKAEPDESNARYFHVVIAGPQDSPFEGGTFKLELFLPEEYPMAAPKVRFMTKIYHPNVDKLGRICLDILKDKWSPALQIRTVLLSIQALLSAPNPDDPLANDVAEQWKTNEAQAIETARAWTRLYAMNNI

[2] = target: T2, Corticotropin-releasing factor receptor 2/Corticotropin-releasing factor-binding protein (Homo sapiens, UniProt P24387+Q13324); assay: Dose Response confirmation of uHTS hits for small molecule antagonists of the CRF-binding protein and CRF-R2 receptor complex.; format: functional; conditions: read-out: IC50_Mean
T2 sequence (Q13324 whole entry): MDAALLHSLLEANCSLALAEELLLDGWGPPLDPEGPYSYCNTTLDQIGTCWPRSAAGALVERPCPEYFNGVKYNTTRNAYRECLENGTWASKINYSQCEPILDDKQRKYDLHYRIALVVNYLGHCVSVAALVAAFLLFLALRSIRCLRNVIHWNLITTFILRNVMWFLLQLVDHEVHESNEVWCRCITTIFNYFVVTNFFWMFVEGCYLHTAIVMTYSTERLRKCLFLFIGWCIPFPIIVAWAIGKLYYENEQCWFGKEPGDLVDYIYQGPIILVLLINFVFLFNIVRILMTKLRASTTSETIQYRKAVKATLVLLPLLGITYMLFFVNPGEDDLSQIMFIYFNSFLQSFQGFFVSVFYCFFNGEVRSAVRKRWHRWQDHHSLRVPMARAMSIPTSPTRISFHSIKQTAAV
T2 sequence (P24387 whole entry): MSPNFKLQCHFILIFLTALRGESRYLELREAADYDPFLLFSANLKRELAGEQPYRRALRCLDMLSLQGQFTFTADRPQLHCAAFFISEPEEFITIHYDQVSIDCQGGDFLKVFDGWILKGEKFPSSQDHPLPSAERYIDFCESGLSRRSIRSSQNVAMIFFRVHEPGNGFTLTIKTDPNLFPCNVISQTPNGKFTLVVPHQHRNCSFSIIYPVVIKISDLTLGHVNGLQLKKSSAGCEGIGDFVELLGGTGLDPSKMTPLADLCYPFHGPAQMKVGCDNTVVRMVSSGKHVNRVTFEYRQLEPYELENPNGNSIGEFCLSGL

[3] = target: T2, Corticotropin-releasing factor receptor 2/Corticotropin-releasing factor-binding protein; assay: activators of CRF receptor 2 with binding protein – uHTS hits, confirmation (AID 602473); format: functional; conditions: read-out: EC50_Mean
[4] = HEp-2 cell cytotoxicity, dose response, cytotoxicity control for RSV inhibitor project, HTS (AID 2410); format: functional; conditions: human respiratory syncytial virus
[5] = inhibitors of intracellular T. cruzi replication, confirmation, NIH3T3 host cells, beta-gal luminescence (AID 2044); format: functional, cell-based;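 further: intracellular parasites grown in NIH/3T3 mouse fibroblasts as host cells; luminescent beta-galactosidase reporter signal from transgenic T. cruzi replicating inside host cells; inhibitors lower the luminescence signal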
[6] = target: T3, Calpain-2 catalytic subunit (Sus scrofa, UniProt P43367); assay: pig calpain II inhibitor potency, dose response, biochemical, fluorogenic peptide substrate (AID 1420); format: functional
T3 sequence (P43367 whole entry): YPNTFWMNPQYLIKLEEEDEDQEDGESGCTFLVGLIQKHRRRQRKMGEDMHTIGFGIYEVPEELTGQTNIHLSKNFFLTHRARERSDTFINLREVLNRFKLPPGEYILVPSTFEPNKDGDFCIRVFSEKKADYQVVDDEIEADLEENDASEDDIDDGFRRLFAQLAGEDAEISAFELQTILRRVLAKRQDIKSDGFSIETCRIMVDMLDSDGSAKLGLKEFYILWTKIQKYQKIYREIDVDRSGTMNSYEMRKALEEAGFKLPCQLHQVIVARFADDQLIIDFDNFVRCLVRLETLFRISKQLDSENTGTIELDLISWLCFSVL

[7] = cytotoxicity toward NIH3T3 fibroblasts, dose response, counter-screen, cell-based, ATP luminescence, mouse fibroblasts (AID 2010); format: functional;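 further: cells exposed to compound for about 90 hours before reading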
[8] = Luminescence Cell-Based Dose Retest to Confirm Inhibitors of Cancer Stem Cells. [Related pubchem assays (depositor defined):AID2717, AID2721]; format: functional; conditions: Homo sapiens
[9] = target: T4, Leucine aminopeptidase (Plasmodium falciparum 3D7, UniProt Q8IL11); assay: P. falciparum M17LAP inhibitors, primary screen, biochemical, fluorogenic H-Leu-NHMec substrate, 1536-well (AID 1619); format: functional
T4 sequence (Q8IL11 whole entry): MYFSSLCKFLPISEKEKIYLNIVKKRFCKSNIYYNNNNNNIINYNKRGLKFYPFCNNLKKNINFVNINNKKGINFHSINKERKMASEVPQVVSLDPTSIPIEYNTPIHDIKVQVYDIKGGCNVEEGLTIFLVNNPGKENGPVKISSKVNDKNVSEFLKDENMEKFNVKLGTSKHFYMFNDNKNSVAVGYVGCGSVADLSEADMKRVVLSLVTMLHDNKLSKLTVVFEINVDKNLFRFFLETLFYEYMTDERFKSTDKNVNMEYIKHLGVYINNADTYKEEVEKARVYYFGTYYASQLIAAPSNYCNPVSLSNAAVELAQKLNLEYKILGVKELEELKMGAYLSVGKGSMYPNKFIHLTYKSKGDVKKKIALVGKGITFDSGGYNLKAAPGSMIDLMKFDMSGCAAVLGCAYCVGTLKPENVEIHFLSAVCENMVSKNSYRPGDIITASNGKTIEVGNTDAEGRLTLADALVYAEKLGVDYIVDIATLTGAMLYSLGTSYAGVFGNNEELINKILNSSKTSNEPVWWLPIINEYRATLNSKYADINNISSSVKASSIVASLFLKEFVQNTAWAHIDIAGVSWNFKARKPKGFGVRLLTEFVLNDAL

[10] = target: Cytochrome P450 3A4 (Homo sapiens, UniProt P08684);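 further: CYP3A4 tested as one member of a cytochrome P450 panel screen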
[11] = microbe, parasite or virus in culture; format: functional; conditions: Mycobacterium tuberculosis
[12] = cells; format: functional, cell-based
[13] = cells; format: functional, cell-based; remark: listed apart in the source
[14] = cells; format: functional
[15] = Shn3 3'UTR reporter inhibitors, dose response, cell-based, Clone20 osteoblasts, firefly luciferase, cherry-picked (AID 624132); format: functional;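 further: firefly luciferase luminescence from reporter carrying the Shn3 3'UTR in osteoblasts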
[16] = control 3'UTR Renilla luciferase suppression, dose response, counter-screen for Shn3 inhibitor project, cell-based, Clone20-Shn3RL, cherry-picked (AID 624133); format: functional
[17] = target: T5, Replicative DNA helicase DnaB (Mycobacterium tuberculosis, UniProt P9WMR3); assay: DnaB intein splicing inhibitors, dose response, biochemical, cell-free fluorescence (AID 449749); format: functional
T5 sequence (P9WMR3 whole entry): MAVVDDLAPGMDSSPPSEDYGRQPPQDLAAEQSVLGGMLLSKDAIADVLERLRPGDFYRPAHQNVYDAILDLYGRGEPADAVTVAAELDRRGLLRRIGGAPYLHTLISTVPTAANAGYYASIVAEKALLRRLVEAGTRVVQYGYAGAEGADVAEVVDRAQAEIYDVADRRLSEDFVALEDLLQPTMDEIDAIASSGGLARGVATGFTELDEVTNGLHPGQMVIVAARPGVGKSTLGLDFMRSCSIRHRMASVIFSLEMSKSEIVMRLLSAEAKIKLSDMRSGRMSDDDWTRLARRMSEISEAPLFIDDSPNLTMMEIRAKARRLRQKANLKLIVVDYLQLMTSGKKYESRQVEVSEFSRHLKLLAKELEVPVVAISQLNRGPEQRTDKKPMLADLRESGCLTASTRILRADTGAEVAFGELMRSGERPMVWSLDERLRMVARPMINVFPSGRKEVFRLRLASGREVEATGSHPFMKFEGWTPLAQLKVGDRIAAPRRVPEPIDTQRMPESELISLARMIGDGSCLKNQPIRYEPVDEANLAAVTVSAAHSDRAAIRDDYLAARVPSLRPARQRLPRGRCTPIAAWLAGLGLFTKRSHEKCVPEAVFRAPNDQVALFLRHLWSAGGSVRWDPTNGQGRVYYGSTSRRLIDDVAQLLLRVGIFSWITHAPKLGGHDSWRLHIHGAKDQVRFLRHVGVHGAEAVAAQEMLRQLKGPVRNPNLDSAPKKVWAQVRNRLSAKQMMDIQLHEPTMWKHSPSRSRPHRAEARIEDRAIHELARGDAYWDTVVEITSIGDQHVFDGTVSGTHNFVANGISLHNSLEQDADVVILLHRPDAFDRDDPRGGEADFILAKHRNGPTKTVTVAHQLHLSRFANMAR

Sequence of Cytochrome P450 3A4 (P08684 whole entry): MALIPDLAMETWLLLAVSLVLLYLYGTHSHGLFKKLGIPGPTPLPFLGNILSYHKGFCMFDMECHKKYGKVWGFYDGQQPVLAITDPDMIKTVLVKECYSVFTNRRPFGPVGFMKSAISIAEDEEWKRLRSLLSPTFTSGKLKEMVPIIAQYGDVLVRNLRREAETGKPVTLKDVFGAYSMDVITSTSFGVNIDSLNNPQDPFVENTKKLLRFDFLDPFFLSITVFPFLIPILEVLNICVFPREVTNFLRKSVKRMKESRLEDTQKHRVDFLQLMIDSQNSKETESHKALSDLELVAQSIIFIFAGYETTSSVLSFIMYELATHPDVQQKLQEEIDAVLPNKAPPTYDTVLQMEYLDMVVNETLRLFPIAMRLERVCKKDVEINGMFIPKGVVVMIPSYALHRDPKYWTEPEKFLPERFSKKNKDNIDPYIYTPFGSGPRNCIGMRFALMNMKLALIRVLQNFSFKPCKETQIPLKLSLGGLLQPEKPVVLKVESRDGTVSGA

CC(C)COCC(CN(Cc1ccccc1)c1ccccc1)N1CCCC1 (stereo unspecified)
IC50 [1]: > 20 µM (inactive)

CCN(CC)CCN/C(C)=C1\C(=O)NC(=O)N(c2ccccc2OC)C1=O
IC50 [2]: > 47.1 µM (inactive)
EC50 [3]: > 53 µM (inactive)

CCCCN(CC)S(=O)(=O)c1ccc(C(=O)N(CCCN(C)C)c2nc3cc(C)cc(C)c3s2)cc1
CC50 [4]: 14.9 µM (active)
EC50 [5]: 0.227 µM (active)
IC50 [6]: 8.03 µM (not active)
EC50 [7]: 9.54 µM (active)
AC50 [8]: 6.96 µM (active)
IC50 [1]: > 20 µM (inactive)

Cc1ccc(S(=O)(=O)NC(=O)CSc2nc3ccccc3s2)cc1
IC50 [9]: 7.77 µM (active)
AC50 [10]: 14.1 µM (inconclusive)

O=C(Nc1ccc(C(=O)O)cc1)Nc1cccc([N+](=O)[O-])c1
IC50 [9]: 16.1 µM (active)

Cc1ccc2[nH]c(=O)c(=NNc3ccccc3)cnc2c1
CC50 [11]: > 40 µM (active)

CCC(=O)n1nc(NCc2ccc(OC)c(OC)c2)nc1NCc1ccc(OC)c(OC)c1
EC50 [12]: > 350 µM (not active)
EC50 [13]: > 350 µM (not active)

Cn1c(SCC(=O)c2ccccc2)nnc1-c1ccco1
EC50 [12]: > 350 µM (not active)
EC50 [13]: 57.5 µM (active)

CC(C)Cn1nc2c3c(ccc2c1O)C(=O)c1ccccc1C3=O
CC50 [11]: 16.4 µM (active)

C=CCn1c(SCC(=O)c2ccc(NS(=O)(=O)c3ccccc3)cc2)nnc1-c1cccs1
IC50 [9]: 14.7 µM (active)

O=C(CSc1nc[nH]n1)N1N=C2/C(=C/c3ccco3)CCCC2C1c1ccco1 (stereo unspecified)
IC50 [9]: 2.11 µM (active)

COc1ccccc1NC(=O)CSc1nc[nH]n1
IC50 [9]: 36.8 µM (active)

N#Cc1ccc(COC(=O)CCc2c[nH]c3ccccc23)cc1
IC50 [14]: 1.68 µM (active)

CSc1ccc(C(=O)C2CCCN(Cc3cc4ccccc4[nH]3)C2)cc1 (stereo unspecified)
IC50 [14]: 13.2 µM (active)

COc1ccc(-c2noc(CCC(=O)NCC3CCN(Cc4cccc(C)c4)CC3)n2)cc1
IC50 [1]: > 20 µM (inactive)

Cc1ccc(OCCCCNC2CCCC(C)C2C)c(C)c1 (stereo unspecified)
EC50 [5]: 0.778 µM (active)
CC50 [11]: > 40 µM (active)
EC50 [7]: > 60 µM (not active)

OC(CN1C2=NCCN2c2ccccc21)c1ccc2c(c1)OCO2 (stereo unspecified)
IC50 [2]: > 47.1 µM (inactive)
EC50 [3]: > 53 µM (inactive)

CCOc1ccc(NC(=O)C2CC(C)=C(C)CC2C(=O)O)cc1 (stereo unspecified)
IC50 [9]: 21.3 µM (active)

CCCn1c(=N)c(C(=O)NCc2ccc3c(c2)OCO3)cc2c(=O)n3cccc(C)c3nc21
EC50 [5]: 1.67 µM (active)
CC50 [11]: 33.9 µM (active)
EC50 [7]: > 30 µM (not active)

FC(F)(F)c1ccc2c(c1)NP(=S)(N1CCOCC1)c1nccn1-2 (stereo unspecified)
EC50 [12]: > 350 µM (not active)
EC50 [13]: > 350 µM (not active)

CCCOC(=O)NC1C(NC(=O)OCCC)N(C)C(=O)N1C (stereo unspecified)
EC50 [12]: > 350 µM (not active)
EC50 [13]: > 350 µM (not active)

COC(=O)CN1C(=O)COc2ccc(S(=O)(=O)NCc3ccc(Cl)cc3)cc21
IC50 [2]: > 47.1 µM (inactive)
EC50 [3]: > 53 µM (inactive)

CC(=O)c1cccc(NC(=O)CN(C)S(=O)(=O)c2cccc3nsnc23)c1
EC50 [12]: > 350 µM (not active)
EC50 [13]: > 350 µM (not active)

CN(C(=O)COC(=O)c1ccc(F)c(S(=O)(=O)N2CCOCC2)c1)C1CCS(=O)(=O)C1 (stereo unspecified)
EC50 [12]: > 350 µM (not active)
EC50 [13]: > 350 µM (not active)

O=C(NCCc1c[nH]c2ccccc12)OCCSS(=O)(=O)O
IC50 [9]: 21.8 µM (active)

CCCC(=O)NC(=S)Nc1ccc(N2CCN(C(=O)c3cccs3)CC2)cc1
AC50 [15]: 10.1 µM (active)
AC50 [16]: 10.7 µM (active)

COc1ccc(NC(=O)CN2C(=O)C(C)SC(C)C2=O)cc1 (stereo unspecified)
IC50 [9]: 12.2 µM (active)

CC(=O)N1CCN(S(=O)(=O)c2cccc(C(=O)NCc3ccc(F)cc3)c2)CC1
IC50 [2]: > 47.1 µM (inactive)
EC50 [3]: > 53 µM (inactive)

COc1ccc(CCNC(=O)c2cccn2C)cc1
IC50 [2]: > 47.1 µM (inactive)
EC50 [3]: > 53 µM (inactive)

COc1ccccc1NC(=O)C1=C(C)Nc2nnnn2C1c1ccncc1 (stereo unspecified)
AC50 [17]: 21.2 µM (inconclusive)

Cc1ccc(NC(=O)CCn2cc(C(F)(F)F)ccc2=O)cc1
IC50 [2]: > 47.1 µM (inactive)
EC50 [3]: > 53 µM (inactive)

COc1ccc(/C=N/NS(=O)(=O)c2ccccc2)cc1OC(=O)c1ccc(C)cc1
IC50 [2]: > 47.1 µM (inactive)
EC50 [3]: > 53 µM (inactive)
